In general, Ki refers to a measure of affinity in units of concentration, obtained from inhibition or displacement. Low readings indicate higher affinity, high ones lower affinity. A word on the IC50: it is the concentration needed to halve the response being measured. Low values mean inhibition by little substance, high ones a need for much substance.

Data set [1] has as its target T1, human SERT (Homo sapiens, UniProt P31645). The experiment in a line: Transporter-mediated 5-HT release from preloaded HEK 293 cells. It counts as cell-based. The note with it: 100 μM, 15 min, compared with citalopram (negative control).
The target in data set [2] is T2, human NET (Homo sapiens, UniProt P23975). The experiment in a line: Transporter-mediated noradrenaline release from preloaded HEK 293 cells. It is filed as cell-based. The note with it: 100 μM, 45 min, compared with nisoxetine (negative control).
T2 sequence (P23975 whole entry): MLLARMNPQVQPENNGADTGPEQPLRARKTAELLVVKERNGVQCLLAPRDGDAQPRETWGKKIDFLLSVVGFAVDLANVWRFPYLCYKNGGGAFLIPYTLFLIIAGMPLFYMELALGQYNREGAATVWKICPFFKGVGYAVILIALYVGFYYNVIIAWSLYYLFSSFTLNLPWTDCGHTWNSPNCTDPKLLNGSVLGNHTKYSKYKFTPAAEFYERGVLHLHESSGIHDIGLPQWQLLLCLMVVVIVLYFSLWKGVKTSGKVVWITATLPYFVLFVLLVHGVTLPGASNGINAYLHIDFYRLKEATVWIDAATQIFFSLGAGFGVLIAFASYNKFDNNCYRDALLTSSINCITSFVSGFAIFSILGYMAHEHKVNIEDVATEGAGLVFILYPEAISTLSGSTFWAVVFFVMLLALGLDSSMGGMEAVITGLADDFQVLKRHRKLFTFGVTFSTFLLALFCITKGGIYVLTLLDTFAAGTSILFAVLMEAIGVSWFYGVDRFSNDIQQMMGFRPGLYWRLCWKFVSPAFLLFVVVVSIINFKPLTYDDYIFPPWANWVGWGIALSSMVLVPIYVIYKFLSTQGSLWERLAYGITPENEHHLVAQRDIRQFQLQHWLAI
Data set [3] addresses T3, 5‐HT1A receptor (Homo sapiens, UniProt P08908).
T3 sequence (P08908 1-422): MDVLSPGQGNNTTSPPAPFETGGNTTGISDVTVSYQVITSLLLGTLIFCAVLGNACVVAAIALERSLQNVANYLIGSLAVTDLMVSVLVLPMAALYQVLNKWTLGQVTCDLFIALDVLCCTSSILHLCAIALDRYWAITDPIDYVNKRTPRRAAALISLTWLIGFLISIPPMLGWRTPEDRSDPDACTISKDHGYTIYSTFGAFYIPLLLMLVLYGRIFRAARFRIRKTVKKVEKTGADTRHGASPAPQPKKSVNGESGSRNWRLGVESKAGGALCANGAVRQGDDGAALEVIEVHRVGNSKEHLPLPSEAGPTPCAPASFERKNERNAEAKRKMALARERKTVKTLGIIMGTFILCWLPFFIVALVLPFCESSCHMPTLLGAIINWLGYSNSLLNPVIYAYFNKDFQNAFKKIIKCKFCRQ
The experiment in a line: biochemical. It counts as binding.

The conditions of data set [4]: human.
Data set [5] addresses human DAT (Homo sapiens, UniProt Q01959). The experiment in a line: cell-based.
Data set [6] concerns the target 5‐HT2A receptor (Homo sapiens, UniProt P28223). The experiment in a line: biochemical. It counts as binding.
For data set [7] the following is noted: mouse; cited from earlier work.
For data set [8], the target named is T1, human SERT. The experiment in a line: cell-based.
For data set [9] the following is noted: human. The source holds these as a separate data set.
The conditions of data set [10]: human, in vivo.
Data set [11] addresses T2, human NET. The experiment in a line: cell-based. It counts as cell-based.
The conditions of data set [12]: human, in vivo. The source holds these as a separate data set.
Data set [13] has as its target T4, 5‐HT2C receptor (Homo sapiens, UniProt P28335).
T4 sequence (P28335 33-458): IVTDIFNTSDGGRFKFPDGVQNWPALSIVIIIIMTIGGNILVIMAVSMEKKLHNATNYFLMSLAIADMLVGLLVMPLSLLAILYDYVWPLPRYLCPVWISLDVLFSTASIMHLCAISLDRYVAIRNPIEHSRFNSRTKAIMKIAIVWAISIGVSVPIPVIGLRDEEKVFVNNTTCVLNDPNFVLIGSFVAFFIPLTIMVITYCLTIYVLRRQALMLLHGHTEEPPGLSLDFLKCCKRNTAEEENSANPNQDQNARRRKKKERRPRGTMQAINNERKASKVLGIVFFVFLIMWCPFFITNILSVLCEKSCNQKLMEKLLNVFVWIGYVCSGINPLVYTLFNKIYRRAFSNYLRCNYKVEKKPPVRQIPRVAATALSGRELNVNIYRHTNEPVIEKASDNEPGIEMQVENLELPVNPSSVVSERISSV
The experiment in a line: biochemical. It is filed as binding.

The conditions of data set [14]: in vivo; cited from earlier work.

Read-outs that look alike come from different tables or passages of the source. Marks after values point to notes of the source that are not given here. A value given as a limit tells only on which side of the number the result lay.

T1 sequence (P31645 whole entry): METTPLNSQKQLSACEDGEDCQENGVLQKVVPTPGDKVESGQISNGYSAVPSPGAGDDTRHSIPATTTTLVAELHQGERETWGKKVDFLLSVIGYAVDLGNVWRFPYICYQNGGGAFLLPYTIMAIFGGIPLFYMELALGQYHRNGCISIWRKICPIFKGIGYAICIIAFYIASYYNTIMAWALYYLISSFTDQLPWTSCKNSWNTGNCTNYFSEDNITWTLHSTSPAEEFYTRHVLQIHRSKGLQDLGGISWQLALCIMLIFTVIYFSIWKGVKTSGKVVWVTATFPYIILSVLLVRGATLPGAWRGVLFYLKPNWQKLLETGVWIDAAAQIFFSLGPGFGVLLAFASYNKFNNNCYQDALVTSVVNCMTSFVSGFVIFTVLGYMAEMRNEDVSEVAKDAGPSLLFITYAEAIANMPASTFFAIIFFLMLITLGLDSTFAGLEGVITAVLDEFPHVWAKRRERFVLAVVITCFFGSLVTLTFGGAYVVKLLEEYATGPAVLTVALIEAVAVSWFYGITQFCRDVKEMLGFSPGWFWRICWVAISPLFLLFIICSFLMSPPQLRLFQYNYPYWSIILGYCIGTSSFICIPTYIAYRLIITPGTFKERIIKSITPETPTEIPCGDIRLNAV
Chain of human DAT (Q01959 whole entry): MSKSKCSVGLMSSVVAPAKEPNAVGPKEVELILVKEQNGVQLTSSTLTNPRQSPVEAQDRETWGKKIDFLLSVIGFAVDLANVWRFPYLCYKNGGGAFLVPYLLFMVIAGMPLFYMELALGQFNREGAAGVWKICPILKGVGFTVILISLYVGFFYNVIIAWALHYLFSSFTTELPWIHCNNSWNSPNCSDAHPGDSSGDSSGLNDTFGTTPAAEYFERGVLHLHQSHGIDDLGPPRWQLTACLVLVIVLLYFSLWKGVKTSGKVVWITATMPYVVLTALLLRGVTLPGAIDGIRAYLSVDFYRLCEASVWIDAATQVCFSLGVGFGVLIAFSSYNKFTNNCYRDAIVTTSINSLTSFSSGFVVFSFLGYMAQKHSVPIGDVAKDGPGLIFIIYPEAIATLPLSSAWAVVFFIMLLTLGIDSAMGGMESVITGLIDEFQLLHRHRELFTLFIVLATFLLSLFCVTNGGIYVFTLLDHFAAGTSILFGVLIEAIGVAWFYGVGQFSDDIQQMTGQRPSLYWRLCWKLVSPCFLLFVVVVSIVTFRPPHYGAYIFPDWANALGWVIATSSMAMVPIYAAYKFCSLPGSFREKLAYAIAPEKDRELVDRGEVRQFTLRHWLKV
Chain of 5‐HT2A receptor (P28223 whole entry): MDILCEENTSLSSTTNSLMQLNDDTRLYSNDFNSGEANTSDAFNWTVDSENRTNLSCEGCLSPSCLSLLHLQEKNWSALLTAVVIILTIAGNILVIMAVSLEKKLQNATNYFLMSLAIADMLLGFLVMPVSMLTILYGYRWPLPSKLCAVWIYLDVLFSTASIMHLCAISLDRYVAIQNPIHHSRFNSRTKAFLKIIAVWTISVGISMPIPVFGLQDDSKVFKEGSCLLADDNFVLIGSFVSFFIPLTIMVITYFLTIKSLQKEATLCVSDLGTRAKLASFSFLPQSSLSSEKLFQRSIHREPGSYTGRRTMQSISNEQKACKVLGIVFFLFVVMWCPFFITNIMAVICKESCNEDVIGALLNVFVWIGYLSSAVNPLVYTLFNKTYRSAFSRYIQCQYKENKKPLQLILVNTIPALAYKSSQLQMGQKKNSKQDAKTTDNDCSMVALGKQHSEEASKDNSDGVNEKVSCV

`CNC(C)Cc1ccc2c(c1)OCO2` (stereo not drawn) [MDMA, 3,4‐Methylenedioxymethamphetamine]: the “Transporter-mediated 5-HT release” value in data set [1] is “induced significantly greater 5‐HT and noradrenaline release”. For the same compound, the Transporter-mediated noradrenaline release entry in [2] was “induced significantly greater 5‐HT and noradrenaline release”.

Regarding `COc1ccc2c3c1O[C@H]1C(=O)CC[C@@]4(O)[C@@H](C2)N(C)CC[C@]314` [Oxycodone], the figures for the Ki in data set [3] and in data set [6] were over 17 µM and over 13 µM, respectively. The “WHO database: cases of serotonin syndrome, only suspected cause” value in [4] is listed as 2. Also, the “WHO database: cases of serotonin syndrome, only suspected cause or among others” value in data set [4] was determined as 101. Besides, the IC50 in data set [5], in data set [8], in data set [8] (SERT inhibition in vitro IC50) and in data set [11] was over 100 µM in each case. Further, the “fu,plasma” value in [7] was 0.6. For the same compound, in data set [9], the “Medline database: number of published cases of serotonin syndrome” value worked out at 13. Moreover, the “Cu,plasma” value in [10] was 0.2 µM.

`CC[C@@H](c1cccc(O)c1)[C@@H](C)CN(C)C` [Tapentadol]: the figures for the Ki in data set [3], in data set [13] and in data set [6] were over 17 µM, 12 ± 3.2 µM and 6.3 ± 0.2 µM, respectively. Also, the “WHO database: cases of serotonin syndrome, only suspected cause” value in data set [4] was determined as 42. In data set [4], the “WHO database: cases of serotonin syndrome, only suspected cause or among others” value was 115. In addition, the “Cu,brain” value in data set [12] is 0.2–3.5 ^l μM. In addition, the IC50 was determined as 78 µM in data set [5], 3.3 µM in [8] and 1.3 µM in [11]. Further, the “SERT/NET ratio (95% CI)” value in data set [8] is recorded as 0.39 (0.21–0.70). Also, the “Medline database: number of published cases of serotonin syndrome” value in data set [9] came out at 1. In addition, the “Cu,plasma” value in [10] lay in the range of 0.1 to 1.5 µM. In addition, in data set [14], the “Ctotal,plasma” value was 0.1 to 1.9 µM. Also, the “fold more potent inhibitor of the NET versus SERT” value in data set [11] worked out at 2.6 fold.

The record behind these values is publication PMC5773950 (British Journal of Pharmacology, 2018).
